Test: Stability of chlorhexidine in simplified formulations by HPLC-UV after storage at 60°C
Format: physicochemical
Conditions: result in words; formulations with arginine versus without, 60°C for 42 days
Experimental: The following simplified formulations were used for these studies: […]
The stability of the formulations was measured by HPLC-UV after storage at 60°C for 42 days. The formulations were stored in PET bottles with PP caps.
Compositions 1-4 include arginine as a stabilising agent. […] In particular, compositions 1-4 and compositions 5-7 differ only in the presence or absence of arginine.

Structure (SMILES): N=C(N)NCCCC(N)C(=O)O (stereo not shown) [arginine, 2-amino-5-guanidinopentanoic acid]
- stability of the chlorhexidine: improved the stability

Reference: patent EP3697380B1, “ORAL CARE PREPARATIONS COMPRISING CHLORHEXIDINE AND ARGININE OR THEIR SALTS” (priority 2019, dated 2020)
